Like-named read-outs stand apart in the source and are kept apart here.
Experiments:
h-CM cells [1] = assay type: cell-based, human; conditions: 1 h at 37 °C; enzyme immunoassay; mean ± SEM, 3 to 6 experiments; read-out: PGF2α production in h-CM cells (EC50)
h-CM cells [2] = assay type: cell-based, human; conditions: 1 h at 37 °C; enzyme immunoassay; mean ± SEM, 3 to 6 experiments; read-out: PGE2 production in h-CM cells (EC50)
CHO-B2 cells [3] = assay type: cell-based, Chinese hamster ovary cells, human cloned B2 receptor; conditions: 1 h at 37 °C; enzyme immunoassay; mean ± SEM, 3 to 6 experiments; read-out: PGF2α production in CHO-B2 cells (EC50)
CHO-B2 cells [4] = assay type: cell-based, Chinese hamster ovary cells, human cloned B2 receptor; conditions: 1 h at 37 °C; enzyme immunoassay; mean ± SEM, 3 to 6 experiments; read-out: PGE2 production in CHO-B2 cells (EC50)
[5] = test system: CHO-B2 cells (human cloned B2 receptor); assay type: cell-based, Chinese hamster ovary cells; conditions: for EC50: 1 h at 37 °C, enzyme immunoassay, mean ± SEM, 3 to 6 experiments, read-out: Total PGs production in CHO-B2 cells (EC50); for PG production/release by compound alone, CHO-B2 cells: compound on its own
primary h-CM cells = assay type: cell-based, human; conditions: for EC50: 1 h at 37 °C, enzyme immunoassay, mean ± SEM, 3 to 6 experiments, read-out: Total PGs production in h-CM cells (EC50)
cynomolgus monkey eyes = conditions: cabergoline 50 µg topical, ocular hypertensive eyes, nine monkeys, ref Thirty ([30]), cited from earlier work
Excerpt: Table 4 Effects of topical ocular bradykinin on IOP of Cynomolgus monkey eyes | column: Monkey IOP changes after topical ocular dosing / IOP (mmHg); Monkey IOP changes after topical ocular dosing / IOP change (% of control)

CHO-B2 cells [6] = conditions: read-out: PGD2 production in CHO-B2 cells (EC50), 1 h at 37 °C, enzyme immunoassay
Experimental: Measurement of prostaglandins in human ciliary muscle and Chinese hamster ovary cells expressing B2 receptors
This involved stimulating h-CM cells and CHO-B2 cells with various concentrations of test peptides and measuring the release of various PGs in the extracellular medium. The concentration-dependent effects of these peptides on total PGs, and specifically PGE2, PGF2α, and PGD2 release, were studied. Cells were grown as a monolayer in a 24-well plate (precoated with fibronectin) to confluence and subsequently serum-starved overnight before the experiment. On the day of the experiment, just before the drug was added, the wells were aspirated completely, and 990 µl basal medium and 10 µl 100× series of concentrations of the different peptide agonists were added to achieve the desired final concentrations of each compound (e.g., 0.1 nM to 10 µM). […] At the end of the incubation period, the cellular supernatants were collected and stored at −80 °C or used immediately to determine the PG content. Cell supernatants were tested for total PG levels and sub-species of PGs (PGE2, PGF2α, and PGD2) using specific competitive enzyme immunoassays (Cayman Chemical Co., Ann Arbor, MI) as directed in the manufacturer’s recommended protocols using the supplied standards and reagents. The limits of detection for various PGs were as follows: total PGs=29 pg/ml; PGE2=15 pg/ml; PGF2α=9 pg/ml; PGD2=200 pg/ml.

primary h-TM cells = assay type: cell-based, human; conditions: preliminary data, values rounded-off, read-out: Agonist potency at stimulating [Ca^2+]i mobilization in primary h-TM cells (EC50)
[7] = test system: B2-receptor, primary h-CM cells; assay type: cell-based, human
Experimental: Functional assay measuring [Ca^2+]i mobilization in cultured human ciliary muscle cells
Accordingly, we isolated h-CM cells and studied BK-induced [Ca^2+]i mobilization in these cells using the Fluorescence Imaging Plate Reader (FLIPR; Molecular Devices, Menlo Park, CA) instrument as previously described. Low passage h-CM cells were seeded at a density of about 20,000 cells/well in a black-wall, 96-well tissue culture plates and grown for 2 days. On the day of the experiment, one vial of FLIPR Calcium Assay Kit dye (Molecular Devices) was resuspended in 50 ml of a FLIPR buffer consisting of Hank’s Balanced Salt Solution (HBSS), 20 mM HEPES, and 2.5 mM probenecid, pH 7.4. Cells were loaded with the calcium-sensitive dye (proprietary to Molecular Devices) by adding an equal volume (50 µl) to each well of the 96-well plate and incubated with dye for 1 h at 23 °C. Then the test compound plate and the cell plate were placed in the FLIPR instrument, and an aliquot (25 μl) of the BK solution (positive control) or the test compound was added to the existing 100 μl dye-loaded cells at a dispensing speed of 50 μl/sec. Fluorescence data were collected in real time over a period of time. Responses were measured as peak fluorescence intensity minus basal and where appropriate are expressed as a percentage of a maximum BK-induced response [Emax %]. When antagonist studies were performed, the latter were incubated with the cells for 15 min before BK was added. When the effects of various cellular signaling inhibitors/treatments were investigated, they were added to the cells 5 min before BK was added. The potencies (EC50 or IC50 values) of agonists and antagonists were determined from concentration-response curves using a sigmoidal-fit, iterative algorithm of a computer program designed to automatically fit the raw data (ActivityBase, IDBS, Surrey, UK). […] Concentration-response curves and other plots for the manuscript were constructed using Origin® software package (Microcal® Software Inc., Northampton, MA).
Figure 3 Concentration-dependent effect of bradykinin (BK) on mobilization of [Ca^2+]i in normal, primary h-CM cells. Fluorescent dye-loaded h-CM cells were exposed to different concentrations of BK and the changes in relative fluorescence units (RFUs), indicating changes in levels of [Ca^2+]i, monitored over time (Figure 3A). The peak responses to various BK concentrations were then used to construct the concentration-response curves. Other BK-related peptides were tested in the same manner and their concentration-response curves plotted (e.g., data from a representative experiment; Figure 3B).

human cloned B2 receptor = target: T1, human cloned B2 receptor (Homo sapiens, UniProt P30411); assay: [^3H]-BK binding to human cloned B2 receptor (CHO-B2 membranes); conditions: 0.2 nM [^3H]-BK, CHO-B2 homogenates 2.5 µg protein, 60 min, 23 °C, 50 mM Tris/HCl pH 7.4; mean±SEM, up to 19 experiments; read-out: Ligand binding inhibition constant at human cloned B2 receptors (Ki)
T1 construct: purchased Euroscreen, Gosselies, Belgium; host or cells: CHO cells (recombinant, CHO-B2), used as cell homogenates/membranes
T1 sequence (P30411 1-391): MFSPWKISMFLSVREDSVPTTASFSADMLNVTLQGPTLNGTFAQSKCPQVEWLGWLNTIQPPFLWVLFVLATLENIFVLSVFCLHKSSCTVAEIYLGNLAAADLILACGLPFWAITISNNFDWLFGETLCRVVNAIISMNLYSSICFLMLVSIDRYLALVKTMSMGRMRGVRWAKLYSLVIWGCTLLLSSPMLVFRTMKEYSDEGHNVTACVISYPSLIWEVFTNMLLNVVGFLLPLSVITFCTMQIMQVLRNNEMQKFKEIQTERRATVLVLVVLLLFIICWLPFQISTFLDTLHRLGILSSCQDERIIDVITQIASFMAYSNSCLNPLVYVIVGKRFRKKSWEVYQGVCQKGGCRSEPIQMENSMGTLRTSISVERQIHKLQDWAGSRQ
Experimental: However, in view of the difficulty of obtaining sufficient h-CM cells for these initial studies, we decided to use cell membranes of Chinese hamster ovary cells containing the human cloned B2 receptor (CHO-B2; Euroscreen, Gosselies, Belgium). […] Following this incubation, the samples were filtered rapidly under vacuum through glass fiber filters (PerkinElmer) presoaked with 0.3% polyethyleneimine and rinsed several times with an ice-cold 50 mM Tris-HCl buffer using a 96-sample cell harvester (TomTec; Gaithersburg, MD). The filters were air-dried and the radioactivity counted in a beta-scintillation counter (TopCount, PerkinElmer). Data were analyzed using a sigmoidal-fit, iterative algorithm of a computer program designed to automatically fit the new data (Activity base; IDBS, Surrey, UK).

For CCCC[P+](CCCC)(CCCC)Cc1ccc(NC(=O)[C@H](Cc2ccc3ccccc3c2)NC(=NC2CCCCC2)NC2CCCCC2)cc1.[Cl-] [(S)-WIN-64338], which EC50 (h-CM cells [1]) is on record?
The EC50 was greater than 10000 nM.

And the EC50 (h-CM cells [2])?
Its EC50 is greater than 10000 nM.

And the EC50 (CHO-B2 cells [3])?
Its EC50 is greater than 10 nM.

And the EC50 (CHO-B2 cells [4])?
Its EC50 is greater than 10 nM.

What about the EC50 [5] of the same compound?
Its EC50 is greater than 10 nM.

What about the “Effect on BK-induced total PGs production, CHO-B2 cells” value [5] of the same compound?
The value was “blocked”.

And the “Effect on BK-induced total PGs production, CHO-B2 cells” value ([5]; listed as WIN-64338)?
The value was “potent antagonism”.

And the “PG production/release by compound alone, CHO-B2 cells” value [5]?
Its value is “failed to influence PG production”.

What about the “PG production/release by compound alone, CHO-B2 cells” value ([5]; listed as WIN-64338) of the same compound?
Its value is “did not induce PGs release”.

And the EC50 (primary h-CM cells)?
The EC50 was greater than 10000 nM.

And the “PG production/release by compound alone, h-CM cells” value (primary h-CM cells; compound on its own, listed as WIN-64338)?
The value was “did not induce PGs release”.

And the “Effect on BK-induced total PGs production, h-CM cells” value (primary h-CM cells)?
The value was “blocked”.

And the “Effect on BK-induced total PGs production, h-CM cells” value (primary h-CM cells; listed as WIN-64338)?
The value was “potent antagonism”.

Which results are given for C=CCN1C[C@H](C(=O)N(CCCN(C)C)C(=O)NCC)C[C@@H]2c3cccc4[nH]cc(c34)C[C@H]21 [Cabergoline, cabergoline]?
IOP (cynomolgus monkey eyes; 0 h): 34.7±3.0 mmHg; IOP change (% of control) (cynomolgus monkey eyes; 0 h): 0%; IOP change (% of control) (cynomolgus monkey eyes; 1 h): -16.0%; IOP change (% of control) (cynomolgus monkey eyes; 3 h): -30.4%; IOP change (% of control) (cynomolgus monkey eyes; 7 h): -28.8%; IOP change (% of control) (cynomolgus monkey eyes; 24 h): -27.3%

Which results are given for N=C(N)NCCC[C@H](N)C(=O)N1CCC[C@H]1C(=O)N1CCC[C@H]1C(=O)NCC(=O)N[C@@H](Cc1ccccc1)C(=O)N[C@@H](CO)C(=O)N1CCC[C@H]1C(=O)N[C@@H](Cc1ccccc1)C(=O)O [Des-Arg^9-BK]?
EC50 (h-CM cells [1]): > 1000 nM; EC50 (h-CM cells [2]): > 1000 nM; EC50 (CHO-B2 cells [3]): > 100 nM; EC50 (CHO-B2 cells [6]; one bound printed): > 100 nM; EC50 (CHO-B2 cells [4]): > 100 nM; EC50 (primary h-TM cells): 3600 nM; EC50 [5]: > 100 nM; EC50 (primary h-CM cells): > 1000 nM

Which results are given for O=C(O)CN(CCOCCOCCN(CC(=O)O)CC(=O)O)CC(=O)O [EGTA, ethylene glycol tetraacetic acid]?
Effect on BK-induced [Ca^2+]i mobilization ([7]; EGTA 1 mM, 5 min preincubation): complete abolition of the response to BK; Effect on BK-induced [Ca^2+]i mobilization ([7]; EGTA 1–2 mM): totally abolished; Effect on BK-induced [Ca^2+]i mobilization ([7]; EGTA 1–2 mM, listed as ethylene glycol tetraacetic acid): abolished

Which EC50 ([7]; primary h-CM cells, FLIPR, Calcium Assay Kit dye, pH 7.4, 23 °C dye loading, mean ± SEM, n=3-7, read-out: Agonist potency at stimulating [Ca^2+]i mobilization in primary h-CM cells (EC50)) does the source give for N=C(N)NCCC[C@H](NC(=O)[C@H](Cc1ccccc1)NC(=O)[C@@H]1CCCN1C(=O)[C@H](CO)NC(=O)[C@H](Cc1ccccc1)NC(=O)CNC(=O)[C@@H]1C[C@@H](O)CN1C(=O)[C@@H]1CCCN1C(=O)[C@@H](N)CCCNC(=N)N)C(=O)O [Hyp^3-BK] here?
The EC50 was 2.2 ± 0.2 nM.

And the EC50 (h-CM cells [1])?
The EC50 was 9.2 ± 5.3 nM.

And the EC50 (h-CM cells [2])?
The EC50 was 10.1 ± 4.2 nM.

And the EC50 (CHO-B2 cells [3])?
The EC50 was 0.0593 ± 0.0373 nM.

What about the EC50 (CHO-B2 cells [6]; first of two values in cell) of the same compound?
Its EC50 is 0.0304 nM.

And the EC50 (CHO-B2 cells [6]; second of two values in cell)?
Its EC50 is 0.0582 nM.

What about the EC50 (CHO-B2 cells [4]) of the same compound?
The EC50 was 0.0307 ± 0.0185 nM.

What about the EC50 (primary h-TM cells) of the same compound?
The EC50 was 1 nM.

What about the EC50 [5] of the same compound?
Its EC50 is 0.0683 ± 0.0367 nM.

And the EC50 (primary h-CM cells)?
The EC50 was 10.9 ± 6.1 nM.

For NCCCC[C@H](N)C(=O)N[C@@H](CCCN=C(N)N)C(=O)N1CCC[C@H]1C(=O)N1CCC[C@H]1C(=O)NCC(=O)N[C@@H](Cc1ccccc1)C(=O)N[C@@H](CO)C(=O)N1CCC[C@H]1C(=O)N[C@@H](Cc1ccccc1)C(=O)N[C@@H](CCCN=C(N)N)C(=O)O [Lys-BK], which Ki (human cloned B2 receptor) is on record?
The Ki was 1.8 ± 0.7 nM.

With CNCC(=O)N[C@@H](CCCNC(=N)N)C(=O)N1CCC[C@H]1C(=O)N1CCC[C@H]1C(=O)NCC(=O)N[C@@H](Cc1ccccc1)C(=O)N[C@@H](CO)C(=O)N1CCC[C@H]1C(=O)N[C@H](Cc1ccccc1)C(=O)O [Sar-[D-Phe^9]-Des-Arg^9-BK] as the compound, how does the EC50 [5] read?
Its EC50 is greater than 1 nM.

And the EC50 (primary h-CM cells)?
The EC50 was greater than 1000 nM.

Which “Reduction of BK-mobilized [Ca^2+]i levels vs control cells” value ([7]; thapsigargin 0.1 or 30 µM preincubation) does the source give for C/C=C(/C)C(=O)O[C@H]1C(C)=C2[C@H]([C@@H]1OC(=O)CCCCCCC)[C@@](C)(OC(C)=O)C[C@H](OC(=O)CCC)[C@@]1(O)[C@H]2OC(=O)[C@@]1(C)O [thapsigargin] here?
The value was greater than 50%.

And the “Effect on response to BK after thapsigargin” value ([7]; thapsigargin pretreatment)?
The value was “blunted but not abolished”.

What about the “Effect on BK-induced [Ca^2+]i rise in presence of EGTA” value ([7]; thapsigargin, 1 mM EGTA included) of the same compound?
The value was “concentration-dependently reduced”.

With ryanodine as the compound, how does the “Effect on BK-induced [Ca^2+]i levels” value ([7]; ryanodine 1–30 µM, data not shown) read?
The value was “did not enhance but instead slightly reduced the effect of BK”.

Reference: article PMC3693772, “Protein expression, biochemical pharmacology of signal transduction, and relation to intraocular pressure modulation by bradykinin B2 receptors in ciliary muscle” (Molecular Vision, 2013)
